According to the NIST ThermoML archive (doi:10.1016/j.tca.2012.02.005):
± gives the expanded uncertainty stated by the source.

Experiment: activity coefficient (dimensionless); of the first substance listed, at infinite dilution; xn = mol fraction of the nth substance listed
Conditions: 298.15 K; 101 kPa; Liquid; Chromatography; x1 = 0

Row | SMILES | activity coefficient
1 | CCCCN [1-butanamine] + CO | 0.46 ± 0.07
2 | CCCCCCN [1-hexanamine] + CO | 13.7 ± 2.3
3 | CCCCCCN [1-hexanamine] + c1ccccc1 | 16.2 ± 3.1
4 | Cc1cccc(C)n1 [2,6-dimethylpyridine] + CO | 0.94 ± 0.07
5 | CCC(C)N (centres undefined) [2-butanamine] + CO | 0.75 ± 0.1
6 | CCC(C)N (centres undefined) [2-butanamine] + c1ccccc1 | 1.15 ± 0.17
7 | CC(C)(C)N [2-methyl-2-propanamine] + CO | 0.25 ± 0.05
8 | CC(C)(C)N [2-methyl-2-propanamine] + c1ccccc1 | 1.32 ± 0.21
9 | Cc1ccccn1 [2-methylpyridine] + CO | 0.75 ± 0.07
10 | Cc1cccnc1 [3-methylpyridine] + CO | 0.82 ± 0.07
11 | Cc1cccnc1 [3-methylpyridine] + c1ccccc1 | 0.96 ± 0.12
12 | Cc1ccncc1 [4-methylpyridine] + CO | 1 ± 0.12
13 | NC1CCCCC1 [cyclohexylamine] + CO | 4.81 ± 0.47
14 | NC1CCCCC1 [cyclohexylamine] + c1ccccc1 | 6.43 ± 1
15 | CCNCC [diethylamine] + CO | 0.33 ± 0.05
16 | CCCNCCC [dipropylamine] + CO | 0.91 ± 0.12
17 | CCCNCCC [dipropylamine] + c1ccccc1 | 1.48 ± 0.15

Row | SMILES | activity coefficient
18 | CO [methanol] + C1CCNCC1 | 0.43 ± 0.03
19 | CO [methanol] + CC(C)(C)N | 0.29 ± 0.05
20 | CO [methanol] + CCC(C)N | 0.38 ± 0.05
21 | CO [methanol] + CCCCCCN | 0.38 ± 0.05
22 | CO [methanol] + CCCCN | 0.35 ± 0.07
23 | CO [methanol] + CCCNCCC | 0.69 ± 0.05
24 | CO [methanol] + CCNCC | 0.51 ± 0.03
25 | CO [methanol] + Cc1cccc(C)n1 | 0.61 ± 0.1
26 | CO [methanol] + Cc1ccccn1 | 0.79 ± 0.1
27 | CO [methanol] + Cc1cccnc1 | 0.94 ± 0.12
28 | CO [methanol] + Cc1ccncc1 | 0.68 ± 0.1
29 | CO [methanol] + NC1CCCCC1 | 0.33 ± 0.03
30 | c1ccncc1 [pyridine] + CO | 1.2 ± 0.19
31 | CCN(CC)CC [triethylamine] + c1ccccc1 | 1.28 ± 0.1
32 | CCCN(CCC)CCC [tripropylamine] + CCCCCCCCCCCCCCCC | 1.01
33 | CCCN(CCC)CCC [tripropylamine] + CO | 8.79 ± 1.6
34 | CCCN(CCC)CCC [tripropylamine] + c1ccccc1 | 2.79 ± 0.62
